{
  "source": "patent US20080300222A1",
  "about": "“Phosphoantigen Salts Of Organic Bases And Methods For Their Crystallization” (Innate Pharma, priority 2005, published 2008)",
  "key": {"[1]": {"assay": "DVS hygroscopicity and moisture measurement, second procedure", "format": "physicochemical", "conditions": "22° C.", "method": "Moisture sorption isotherms of the crystalline phases were obtained by using a DVS-1 automated water sorption analyzer (Surface Measurements Systems, Alperton, Middlesex, United Kingdom). The reference material was an empty glass pan and the total gas flow was 200 sccm·min^−1 (Standard Cubic Centimeters per minute). Temperature of analysis was 22° C. For each measurement, precisely ca. 15 mg of the sample were weighed in a glass pan beforehand allowed for the tare, then placed in the analyzer.\nAs a first stage, dry nitrogen (0% R.H) was applied until constant weight of the sample in order to eliminate adsorbed or absorbed water (potential dehydration). Then, mass variations were recorded while R.H. was increased by steps of 10% R.H. The automated analyzer was allowed to start the following step as soon as the mass variation of the sample was less than 5.10^−4 mg·min^−1. The upper limit was adjusted below the deliquescence of the compound and never exceeded 98% R.H. This second stage was afterward followed by a stepped decrease of R.H. down to 0% R.H. This overall procedure constitutes a ‘Full cycle’ analysis. Several successive full cycles can be applied to the same sample.\nDVSWin (v 2.18) was used as control and data collection software whereas data processing was performed by using DVS Standard Analysis Suite (v 4.3).\nFurther parameters used in DVS procedures are as follows: • Protocole Dynamic Vapour Sorption/Appareil ‘Surface Measurements Systems • Automated Water Sorption Analyser’/model: DVS-1 • Analysis method: • step mode, • Temperature: […] • number of steps, • step dm/dt<0.0005 (mg/min) • First stage R.H.=0% • Last Stage R.H.=98% • Half cycle or Full cycle (or several successive full cycles) • dm/dt window: 5 • Minimum Stage: 20 min • Maximum Stage: 120 min • Total Gaz Flow: 200 • Nitrogen: 200 Bars, H2O<3 ppm, O2<2 ppm, Ref. Azote N50 B50*0 • Initial sample weight: • Software—data collection and data processing • DVSWin v2.18 (control software), • DVS Standard Analysis Suite v4.3 (analysis software).]"}, "[2]": {"assay": "Thermal stability by DSC and TG/DSC analysis", "experimental": "DSC analyses were carried out by using a SETARAM 141 Differential Scanning Calorimeter (SETARAM, 69300 Caluire, France). No purge gas was used. The reference material was an empty aluminum pan without cap. The samples were weighed in open aluminum pans, then placed in the analyzer. The analyses were performed within various temperature ranges using a 2°.min^−1 heating rate. SETARAM ACQUISITION Module software (v. 1.4) was used as control software and data processing was performed by using the SETARAM DATA PROCESSING Module software (v. 1.39).\nTG/DSC measurements were carried out by using a NETZSCH STA 449C Jupiter Thermogravimetric Analyzer (NETZSCH, D-95100 Selb, Germany) equipped with a low temperature furnace. The purge gas used was helium (gas flow=60 mL/min) and the reference material was an empty aluminum pan without cap. The samples were weighed in open aluminum pans, then placed in the analyzer. The analyses were performed within various temperature ranges using a 2°.min^−1 heating rate. PROTEUS software was used for the acquisition and data processing (v. 4.7.0)."}, "[3]": {"assay": "DVS hygroscopicity and moisture measurement, first procedure", "format": "physicochemical", "method": "Moisture sorption isotherms of amorphous BrHPP was obtained by using an automated water sorption analyzer. Temperature of analysis was 20° C. For each measurement, precisely ca. 25 mg of the sample were weighed in a pan beforehand allowed for the tare, then placed in the analyzer.\nAfter a stabilization stage at 0% R.H. (R.H. stands for Relative Humidity), mass variations were recorded while R.H. was increased by steps of 20% R.H. The upper limit was adjusted to 80% R.H. This second stage was afterward followed by a stepped decrease of R.H. down to 0% R.H. This overall procedure constitutes a ‘Full cycle’ analysis. Several successive full cycles can be applied to the same sample."}, "[4]": {"assay": "Chemical stability on storage, evaluated by HPAEC analysis"}},
  "note": "Counter-ions that a name gives are not always drawn.",
  "data": [
    {"molecule": "CC(O)(CBr)CCOP(=O)(O)OP(=O)(O)O", "note": "(racemic) [BrHPP benzathin salt (Rac)-Mix-I, 3-(bromomethyl)-3-butanol-1-yl diphosphoric acid, N,N′-dibenzylethylenediammonium salts]", "values": [
      {"measurement": "reversible and reproducible mass variation, (de)hydration (Rac)-Mix-I / (Rac)-Mix-III", "setting": "[1]; R.H. in the range of 50%-70%", "value": 6.1, "unit": "%"},
      {"measurement": "cumulated mass variations", "setting": "[1]; between 0% and 50% R.H.", "value": "< 0.4", "unit": "%"},
      {"measurement": "cumulated mass variations", "setting": "[1]; high relative humidity (up to 90%)", "value": "< 0.2", "unit": "%"},
      {"measurement": "temperature of the fusion-degradation event (thermal stability)", "setting": "[2]; DSC, non solvated crystalline form", "value": "above 146 °C"}
    ]},
    {"molecule": "CC(O)(CBr)CCOP(=O)(O)OP(=O)(O)O", "note": "(racemic) [BrHPP sodium salt, reference compound]", "values": [
      {"measurement": "sensitivity to atmospheric water", "setting": "[3]; even for low R.H.", "value": "very sensitive to atmospheric water"},
      {"measurement": "deliquescence", "setting": "[3]; high relative humidities (≧80% R.H.), 20° C., mass not stabilized after 2300 minutes", "value": "becomes deliquescent"},
      {"measurement": "thermal behaviour in TG/DSC analysis", "setting": "[2]; fluctuations of DSC signal and continuous mass loss, even for temperatures close to ambient", "value": "undergoes chemical degradations"},
      {"measurement": "degradation on storage", "setting": "[4]; 3 months, room temperature (about 25° C.), in contact with ambient atmosphere", "value": 50, "unit": "%"}
    ]},
    {"molecule": "CC(O)(CBr)CCOP(=O)(O)OP(=O)(O)O", "note": "(stereo not shown) [3-(bromomethyl)-3-butanol-1-yl diphosphoric acid, diquininium salts]", "values": [
      {"measurement": "anionic purity of the sample over the storage period", "setting": "[4]; glass vial, room temperature (20-25° C.), ambient atmosphere (50-70% RH), at least 5 months, HPAEC", "value": "99.5%±0.2%"},
      {"measurement": "period over which the compound was found to be stable", "setting": "[4]; stored in a glass vial at room temperature (20-25° C.) and ambient atmosphere (50-70% Relative Humidity)", "value": "at least 5 months"}
    ]}
  ]
}
